Key:
CCRF-CEM cells = assay: MTS cell survival assay, CCRF-CEM cells; type: cell-based, human; details: 72 hours
Protocol: (§1) In FIG. 5A, the polyclonal parental cell line (CCRF-CEM), the single cell-derived glucocorticoid-resistant subclone (CEM-R8) and the single cell-derived glucocorticoid-sensitive subclone (CEM-S2) were cultured for 72 hours in the presence of vehicle (ETOH) or dexamethasone at the concentrations indicated and cell viability was assessed by the MTS assay as described in Methods. In FIG. 5B, the glucocorticoid-resistant subclone (CEM-R8) and the glucocorticoid-sensitive subclone (CEM-S2) were cultured for 72 hours in the presence of hydrocortisone (HC) (10 μM HC for the CEM-R8 cells and 1 μM HC for the CEM-S2 cells), 10 μM forskolin (Fsk), 10 μM rolipram (Rol), or combinations of these agents as indicated, and cell viability was assessed by the MTS assay as described in Methods. FIG. 5C: The glucocorticoid-resistant subclone (CEM-R8) and the glucocorticoid-sensitive subclone (CEM-S2) were cultured for 72 hours in the presence of varying amounts of dibutyryl cAMP (db-cAMP) in the absence (−HC) or presence (+HC) of 1 μM hydrocortisone as indicated, and cell viability was assessed by the MTS assay as described in Methods. […]
(§2) Hoechst 33342 and DiOC6(3) apoptosis assays were performed as previously described^22,28. […] The absorbance (O.D.) of the formazan product was determined at 492 nm using a plate reader (Titertek Multiscan Plus, Labsystems). […]

B-CLL cells [1] = assay: Hoechst 33342 apoptosis assay, B-CLL cells; type: cell-based, human; details: for augmentation of hydrocortisone-induced apoptosis: 10 μM PDE inhibitor + 1 μM hydrocortisone; for apoptosis by Hoechst 33342 analysis: 48 hrs culture, Roli 10 μM, HC 1 μM
Protocol: FIGS. 1A-D show the effects of the cyclic nucleotide phosphodiesterase inhibitors rolipram, RO20-1724 and cilostamide on hydrocortisone and dexamethasone-induced apoptosis in B-CLL. In FIG. 1A, leukemic cells from 11 B-CLL patients were assessed for apoptosis by […] analysis after 48 hrs culture in media alone (No treatment), 10 μM rolipram (Roli), 1 μM hydrocortisone (HC) or a combination of the two drugs (Roli+HC). In FIGS. 1B and 1C, leukemic cells from five patients with B-CLL were cultured in media alone or with a dose titration of hydrocortisone (1B: solid line) or dexamethasone (1C: solid line), followed by assessment for apoptosis by Hoechst 33342 FACS analysis at 48 hours. Using the same experimental conditions, the effect of addition of 10 μM rolipram (thick dashed line) to the glucocorticoids was also assessed. In FIG. 1D, the apoptotic effects of the PDE4 inhibitor RO20-1724 (RO20) (10 μM) or the PDE3 inhibitor cilostamide (Cilost) (10 μM) were assessed on B-CLL cells when combined with 1 μM hydrocortisone. Data represent the mean±SEM of triplicate samples.
Blood samples were obtained by IRB-approved consent from flow cytometry-confirmed B-CLL patients that were either untreated or for whom at least one month had elapsed since chemotherapy. Patients with active infections or other serious medical conditions were not included in this study.
CCRF-CEM cells were obtained from ATCC^27. Leukemic or normal mononuclear cells were obtained by centrifugation over Histopaque 1077 (Sigma Chemical Company, St. Louis, Mo.). For purification of T cells, whole mononuclear cells from normal subjects were incubated with magnetic beads coated with appropriate antibodies, then positively purified using a magnet (Miltenyi). Cells were cultured in RPMI 1640 media (Biowhittaker, Walkersville, Md.) supplemented with 10% fetal calf serum, 50 μMol/L 2-mercaptoethanol, 2 mMol/L L-glutamine, 10 mM Hepes pH 7.4, […] (Sigma Chemical Company, St. Louis, Mo.). For isolation of glucocorticoid resistant clones, parental CCRF-CEM cells were treated with 1 μM dexamethasone for 10 days, and surviving cells diluted to ≦one cell/well in a 96-well flat-bottom tissue culture plate, grown for three weeks in media supplemented with 20% fetal calf serum and 1% insulin-transferrin-selenium (GIBCO), and then transferred to regular growth medium. […] For isolation of glucocorticoid-sensitive clones, the same procedure was used, except that treatment with dexamethasone was omitted. A glucocorticoid-sensitive subclone (CEM-S2) was inhibited in its survival by dexamethasone with an IC50=0.007 μM.
Hoechst 33342 and DiOC6(3) apoptosis assays were performed as previously described^22,28. For CCRF-CEM cell survival assays, cells were plated at a density of 3×10^4/well in 96-well flat-bottom plates in the presence of test reagents or vehicle in 0.1 mL media. Following incubation for 72 hrs, 20 μl of a 20:1 MTS (2 mg/mL)/PMS (0.92 mg/ml) solution was added to each well, and the plates incubated for 2 hrs at 37°. The absorbance (O.D.) of the formazan product was determined at 492 nm using a plate reader (Titertek Multiscan Plus, Labsystems). Percent cell viability was calculated as follows: (O.D. control sample−O.D. blank)/(O.D. test sample−O.D. blank)×100. All assays were performed in triplicate.

PDE4 = details: cited from earlier work
[2] = system: GRE luciferase constructs transiently transfected into B-CLL cells; assay: GRE luciferase transactivation in B-CLL cells; type: cell-based, human; details: 1 mM Rp-8Br-cAMPS; 8 B-CLL samples; p<0.02
Protocol: B-CLL cells (FIG. 3A) or CCRF-CEM cells (FIG. 3B) were transiently transfected with a luciferase construct in which expression is regulated by GRE elements, followed by culture in 10 μM rolipram (R), 40 μM forskolin (Fsk), 1 μM hydrocortisone (HC), 1 mM Rp-8Br-cAMPS (Rp-8Br) or combinations of these agents. 12 hours after addition of the drugs, the relative luminescence of the samples was determined. The data shown are the mean of 8 experiments for B-CLL and two experiments for CCRF-CEM cells. The single asterisk denote a significant difference by paired student's t test between HC alone and either R/HC (FIG. 3A) or F/HC (FIG. 3B) (p<0.02). The double asterisk denotes a significant difference between Rp-8Br-cAMPS/HC and HC alone (p<0.02).
An MMTV GRE luciferase construct, originally created by Dr. R. Evans, was a gift from Dr. Remco Spanjaard (Dept. of Otolaryngology, Boston Medical Center)^29. 100 million B CLL cells in 200 μl of PBS were added to 500 μl of Nucleofector Solution D containing 30 μg of endotoxin-free (Qiagen) MMTV luciferase constructs. 100 μl was used per transfection using a Nucleofector electroporation instrument (Amaxa Biosystems, Koeln, Germany) using program U16. […] Up to six such aliquots of transfected cells were diluted in media and pooled, prior to distribution of 8 million cells/well in 48 well plates. Two hours after transfection, drugs, cytokines or vehicle alone were added to the transfected cells. 14 hours after transfection, samples were processed using a luciferase assay kit (Promega). Triplicate samples were analyzed with an MGM Instruments Optocomp I luminometer (Hamden, Conn.). Analysis of cell viability (trypan blue exclusion) and total protein (Pierce) verified that equivalent numbers of viable B-CLL cells were analyzed. 100 million CCRF-CEM cells were similarly transfected, cultured and analyzed except that Nucleofector program O17 was utilized. […] Data were analyzed using a two-sided paired t test for means.

B-CLL cells [3] = assay: Hoechst 33342 apoptosis assay, B-CLL cells; type: cell-based, human; details: 1 mM Rp-8Br-cAMPS + 1 μM hydrocortisone, 48 hours; six B-CLL patients
[4] = system: glucocorticoid-sensitive subclone (CEM-S2); assay: MTS cell survival assay, CEM-S2; type: cell-based, human; details: 72 hours
Protocol: In FIG. 5A, the polyclonal parental cell line (CCRF-CEM), the single cell-derived glucocorticoid-resistant subclone (CEM-R8) and the single cell-derived glucocorticoid-sensitive subclone (CEM-S2) were cultured for 72 hours in the presence of vehicle (ETOH) or dexamethasone at the concentrations indicated and cell viability was assessed by the MTS assay as described in Methods. In FIG. 5B, the glucocorticoid-resistant subclone (CEM-R8) and the glucocorticoid-sensitive subclone (CEM-S2) were cultured for 72 hours in the presence of hydrocortisone (HC) (10 μM HC for the CEM-R8 cells and 1 μM HC for the CEM-S2 cells), 10 μM forskolin (Fsk), 10 μM rolipram (Rol), or combinations of these agents as indicated, and cell viability was assessed by the MTS assay as described in Methods. FIG. 5C: The glucocorticoid-resistant subclone (CEM-R8) and the glucocorticoid-sensitive subclone (CEM-S2) were cultured for 72 hours in the presence of varying amounts of dibutyryl cAMP (db-cAMP) in the absence (−HC) or presence (+HC) of 1 μM hydrocortisone as indicated, and cell viability was assessed by the MTS assay as described in Methods. The data shown were normalized to the vehicle control. Results represent the mean±SD of triplicate determinations.
(§3) CCRF-CEM cells were obtained from ATCC^27. Leukemic or normal mononuclear cells were obtained by centrifugation over Histopaque 1077 (Sigma Chemical Company, St. Louis, Mo.). For purification of T cells, whole mononuclear cells from normal subjects were incubated with magnetic beads coated with appropriate antibodies, then positively purified using a magnet (Miltenyi). […]
as §2, with “Labsystems). Percent cell viability was calculated as follows: (O.D. control sample−O.D. blank)/(O.D. test sample−O.D. blank)×100.” for “Labsystems).”

[5] = system: glucocorticoid-resistant subclone (CEM-R8); assay: MTS cell survival assay, CEM-R8; type: cell-based, human; details: dexamethasone-resistant CCRF-CEM cells; dbcAMP dose response, 72 hours
Protocol: as §1, §2

CD3+ CD4+ Sezary cells = assay: Hoechst 33342 apoptosis assay, Sezary cells; type: cell-based, human; details: 10 μM rolipram or 1 μM hydrocortisone; one patient
Protocol: Magnetic bead purified peripheral blood T cells or leukemic cells from patients with B-CLL or Sezary syndrome were cultured in media alone or with a dose titration of hydrocortisone (solid line), followed by assessment for apoptosis by Hoechst 33342 FACS analysis at 48 hours. Using the same experimental conditions, the effect of addition of 10 μM rolipram (thick dashed line) or 10 μM rolipram and 40 μM forskolin (dotted line) was also assessed. The SEM of triplicate samples is shown; where not visible, the SEM was less than 1.0%.
as §3
as §2, with “Labsystems). Percent cell viability was calculated as follows: (O.D. control sample−O.D. blank)/(O.D. test sample−O.D. blank)×100.” for “Labsystems).”

PDE1 enzymes = details: cited from earlier work

With `C=C[C@@]1(C)CC(=O)[C@@H]2[C@@]3(C)CCCC(C)(C)[C@@H]3[C@H](O)[C@H](OC(C)=O)[C@@]2(C)O1` [1,9 dideoxyforskolin] the “augmentation of glucocorticoid sensitivity” value (CCRF-CEM cells) was “failed to augment glucocorticoid sensitivity”.

In the case of `CCCCOc1cc(CC2CNC(=O)N2)ccc1OC` (centres unmarked) [RO20-1724, 4-(3-Butoxy-4-methoxybenzyl)-2-imidazolidinone], the “augmentation of hydrocortisone-induced apoptosis” value (B-CLL cells [1]; five B-CLL patients) is listed as “augmented hydrocortisone-induced apoptosis” and the IC50 (PDE4) is listed as 2 µM.

With `Nc1ncnc2c1nc(Br)n2C1OC2COP(O)(=S)OC2C1O` (centres unmarked) [Rp-8Br-cAMPS, (Rp)-8-Br-cAMPS] the “reduction of hydrocortisone-induced transactivation” value [2] was 83% and the “inhibition of hydrocortisone-induced apoptosis” value (B-CLL cells [3]) was 86±14%.

In the case of `CN(C(=O)CCCOc1ccc2[nH]c(=O)ccc2c1)C1CCCCC1` [cilostamide], the “augmentation of hydrocortisone-induced apoptosis” value (B-CLL cells [1]; five B-CLL patients) is reported as “nor augmented hydrocortisone-induced apoptosis” and the “induction of apoptosis by itself” value (B-CLL cells [1]; 10 μM, five B-CLL patients) is reported as “neither induced apoptosis by itself”.

In the case of `CCCC(=O)Nc1ncnc2c1ncn2[C@@H]1O[C@@H]2COP(=O)(O)O[C@H]2[C@H]1OC(=O)CCC` [dbcAMP, dibutyryl cAMP], the “apoptotic effect combined with 1 μM hydrocortisone” value ([4]; dexamethasone-sensitive CCRF-CEM cells, dbcAMP dose response) is reported as “marked synergy” and the “apoptotic effect combined with 1 μM hydrocortisone” value [5] is reported as “marked synergy”.

`C[C@@H]1C[C@H]2[C@@H]3CCC4=CC(=O)C=C[C@]4(C)[C@@]3(F)[C@@H](O)C[C@]2(C)[C@@]1(O)C(=O)CO` [dexamethasone] showed an IC50 ([4]; Homo sapiens, CEM-S2 subclone, read-out: IC50, inhibition of survival) of 0.007 µM.

For `C[C@]12CCC(=O)C=C1CC[C@@H]1[C@@H]2[C@@H](O)C[C@@]2(C)[C@H]1CC[C@]2(O)C(=O)CO` [hydrocortisone], the “apoptosis by Hoechst 33342 analysis” value (B-CLL cells [1]; B-CLL patient #1, No Rx 10) was 19%, the “apoptosis by Hoechst 33342 analysis” value (B-CLL cells [1]; B-CLL patient #2, No Rx 11) was 16% and the “apoptosis by Hoechst 33342 analysis” value (B-CLL cells [1]; B-CLL patient #3, No Rx 13) was 41%. The “apoptosis by Hoechst 33342 analysis” value (B-CLL cells [1]; B-CLL patient #4, No Rx 23) was 42%, the “apoptosis by Hoechst 33342 analysis” value (B-CLL cells [1]; B-CLL patient #5, No Rx 25) was 43% and the “apoptosis by Hoechst 33342 analysis” value (B-CLL cells [1]; B-CLL patient #6, No Rx 27) was 33%. The “apoptosis by Hoechst 33342 analysis” value (B-CLL cells [1]; B-CLL patient #7, No Rx 31) was 47%, the “apoptosis by Hoechst 33342 analysis” value (B-CLL cells [1]; B-CLL patient #8, No Rx 33) was 60% and the “apoptosis by Hoechst 33342 analysis” value (B-CLL cells [1]; B-CLL patient #9, No Rx 35) was 71%. The “apoptosis by Hoechst 33342 analysis” value (B-CLL cells [1]; B-CLL patient #10, No Rx 44) was 75%, the “apoptosis by Hoechst 33342 analysis” value (B-CLL cells [1]; B-CLL patient #11, No Rx 61) was 73% and the “apoptotic effect used separately on Sezary leukemic cells” value (CD3+ CD4+ Sezary cells) was “little effect”.

In the case of `CCOC(=O)C1=C[C@]2(CC)CCCN3CCc4c(n1c1ccccc41)[C@@H]32` [vinpocetine], the IC50 (PDE1 enzymes) is given as 21 µM.
